Experimental findings from PMC9519442, “Genotype–phenotype correlations in WHIM syndrome: a systematic characterization of CXCR4^WHIM variants” (Genes and Immunity, 2022) are described below.

The term Emax denotes the greatest response seen or fitted, relative to the assay's reference.

One assay has as its target T1, CXCR4 E343K (Homo sapiens, UniProt P61073, E343K).
T1 construct: expressed in transfected cells; host or cells: K562
The assay can be described thus: Ca2+ mobilization assay, K562 cells with stable CXCR4 expression. The following applies: K562, read-out: Emax (% inhibition) of mavorixafor, Ca2+ mobilization. In kind it is cell-based. On the procedure:
(§1) Stable K562 clones expressing CXCR4 (1 × 10^5 cells/well) were seeded in black 96-well plates with transparent bottom coated with poly-L-lysine (BioCoat®, Corning) and serum-starved for 24 h. Medium was removed and cells were loaded with 100 µl of fluo-4 AM (3 µM, Invitrogen) dye solution for 45 min at 37 °C. Dye solution was prepared by diluting fluo-4 powder in DMSO + 10% Pluronic F127 (Thermo Fisher Scientific, Waltham, Massachusetts, USA) to 3 mM and then preparing the final dilution in assay buffer (HBSS with Ca^2+ and Mg^2+, 20 mM HEPES, 0.375 g/l NaHCO3, 0.1% BSA + 0.77 g/L probenecid [Thermo Fisher Scientific]). Subsequently, 100 µl of assay buffer alone or assay buffer with compound dilutions was added and the plates were equilibrated in the plate reader for an additional 20 min at 37 °C. Jurkat cells (3 × 10^5 cells/well) were incubated with the Screen Quest Calbryte-520 Probenecid-Free and Wash-Free Calcium Assay Kit (AAT Bioquest, Sunnyvale, California, USA) according to manufacturer’s instructions. […] Raw traces were analyzed in SoftMax Pro 7 Software (Molecular Devices). The arbitrary units were calculated as the difference between maximal and minimal signal after treatment injection, normalized to the baseline signal before injection. Maximal effect (Emax) and half-maximal effective and inhibitory concentrations (EC50 and IC50, respectively) were calculated in Prism (GraphPad Software, San Diego, California, USA).
A general note: A change in cytosolic calcium serves as a functional read-out for many receptors and channels.

The target in the next assay is T2, CXCR4 E343X (Homo sapiens, UniProt P61073).
T2 construct: expressed in transfected cells; host or cells: K562
The assay is described as above. In kind it is cell-based. To be noted: K562, read-out: Emax (% inhibition) of mavorixafor, Ca2+ mobilization. On the procedure: as §1

The target of another assay is T3, CXCR4 G336X (Homo sapiens, UniProt P61073).
T3 construct: expressed in transfected cells; host or cells: K562
The assay is described as above. In kind it is cell-based. The following applies: K562, read-out: Emax (% inhibition) of mavorixafor, Ca2+ mobilization. On the procedure: as §1

The next assay addresses T4, CXCR4 L329Q fs*13 (Homo sapiens, UniProt P61073).
T4 construct: expressed in transfected cells; host or cells: K562
The assay is described as above. In kind it is cell-based. To be noted: K562, read-out: Emax (% inhibition) of mavorixafor, Ca2+ mobilization. On the procedure: as §1

A further assay deals with T5, CXCR4 R334X (Homo sapiens, UniProt P61073).
T5 construct: expressed in transfected cells; host or cells: K562
Described as above. In kind it is cell-based. To be noted: K562, read-out: Emax (% inhibition) of mavorixafor, Ca2+ mobilization. On the procedure: as §1

The target of a further assay is T6, CXCR4 S319C fs*24 (Homo sapiens, UniProt P61073).
T6 construct: expressed in transfected cells; host or cells: K562
The assay is described as above. In kind it is cell-based. The following applies: K562, read-out: Emax (% inhibition) of mavorixafor, Ca2+ mobilization. On the procedure:
as §1

Another assay has as its target T7, CXCR4 S324V fs*20 (Homo sapiens, UniProt P61073).
T7 construct: expressed in transfected cells; host or cells: K562
The description is as above. In kind it is cell-based. To be noted: K562, read-out: Emax (% inhibition) of mavorixafor, Ca2+ mobilization. On the procedure: as §1

A further assay deals with T8, CXCR4 S338X (Homo sapiens, UniProt P61073).
T8 construct: expressed in transfected cells; host or cells: K562
The description is as above. In kind it is cell-based. The following applies: K562, read-out: Emax (% inhibition) of mavorixafor, Ca2+ mobilization. On the procedure:
as §1

The target of a further assay is T9, CXCR4 S339C fs*4 (Homo sapiens, UniProt P61073).
T9 construct: expressed in transfected cells; host or cells: K562
The assay is described as above. In kind it is cell-based. To be noted: K562, read-out: Emax (% inhibition) of mavorixafor, Ca2+ mobilization. On the procedure: as §1

The next assay addresses T10, CXCR4 S339F fs*6 (Homo sapiens, UniProt P61073).
T10 construct: expressed in transfected cells; host or cells: K562
Described as above. In kind it is cell-based. The following applies: K562, read-out: Emax (% inhibition) of mavorixafor, Ca2+ mobilization. On the procedure:
as §1

A further assay addresses T11, CXCR4 S341P fs*25 (Homo sapiens, UniProt P61073).
T11 construct: expressed in transfected cells; host or cells: K562
The description is as above. In kind it is cell-based. The following applies: K562, read-out: Emax (% inhibition) of mavorixafor, Ca2+ mobilization. On the procedure:
as §1

A further assay has as its target T12, CXCR4 T318P fs*3 (Homo sapiens, UniProt P61073).
T12 construct: expressed in transfected cells; host or cells: K562
The description is as above. In kind it is cell-based. The following applies: K562, read-out: Emax (% inhibition) of mavorixafor, Ca2+ mobilization. On the procedure:
as §1

The target in another assay is T13, CXCR4 V320E fs*23 (Homo sapiens, UniProt P61073).
T13 construct: expressed in transfected cells; host or cells: K562
Described as above. In kind it is cell-based. The following applies: K562, read-out: Emax (% inhibition) of mavorixafor, Ca2+ mobilization. On the procedure:
as §1

For another assay, the target named is T14, WT CXCR4 (Homo sapiens, UniProt P61073).
T14 construct: cloned into pcDNA3.1(Hygro+) via NheI/EcoRV to give pcDNA3.1_CXCR4; expressed in transfected cells; host or cells: K562
Described as above. In kind it is cell-based. The following applies: K562, read-out: Emax (% inhibition) of mavorixafor, Ca2+ mobilization. On the procedure: as §1

In another assay the target is all CXCR4^WHIM variants (Homo sapiens, UniProt P61073). Briefly: Ca2+ mobilization assay, K562 cells, pooled over variants. The following applies: K562, read-out: Emax of mavorixafor, Ca2+ mobilization, range over variants. In kind it is cell-based. On the procedure:
as §1, with “°C.” for “°C. Jurkat cells (3 × 10^5 cells/well) were incubated with the Screen Quest Calbryte-520 Probenecid-Free and Wash-Free Calcium Assay Kit (AAT Bioquest, Sunnyvale, California, USA) according to manufacturer’s instructions.”

In assay [1] the target is CXCR4 (WT/WT, RX/WT, RX/RX) (Homo sapiens, UniProt P61073). Briefly: Ligand binding inhibition assay (AF647-CXCL12), Jurkat cells, across all cell lines.
Experimental: Jurkat cells were washed once with assay buffer (HBSS + 20 mM HEPES buffer +0.2% BSA, pH 7.4) and then incubated for 15 min at room temperature with test compound diluted in assay buffer at dose-dependent concentrations. […] The cells were incubated for 30 min at room temperature. Thereafter, the cells were washed twice in assay buffer, fixed with 1% paraformaldehyde in PBS, and analyzed by flow cytometry (Cytoflex). […] The percentage of inhibition was calculated according to the formula: [1-((MFI-MFINC)/(MFIPC-MFINC))]*100 where MFI is the mean fluorescence intensity of cells in the presence of an inhibitor, MFINC is mean fluorescence intensity of cells in the absence of the ligand and MFIPC is mean fluorescence intensity of cells in the presence of the ligand alone.
In assay [2] the target is T15, R334X/R334X CXCR4 (RX/RX Jurkat cells) (Homo sapiens, UniProt P61073).
T15 construct: a cellular model of homozygous and heterozygous R334X CXCR4 in an endogenous locus; host or cells: Jurkat (E6-1, ATCC), CRISPR-Cas9 clones A3 and B5 (RX/RX)
Briefly: ERK activation assay (phosphoflow p-T202/Y204 ERK), Jurkat cells. In kind it is cell-based. To be noted: 10 nM CXCL12 for 5 min. On the procedure: (§2) Stable K562 clones expressing CXCR4 or Jurkat cells were seeded in starvation medium in 96-well plates overnight. After treatment, the cells were fixed with fixation solution (eBioscience, Thermo Fisher Scientific, Waltham, Massachusetts, USA) for 10 min at room temperature, then permeabilized for 5 min with ice-cold methanol on ice followed by a washing step with wash/permeabilization solution (eBioscience, Thermo Fisher Scientific, Waltham, Massachusetts, USA). Cells were then stained with Alexa Fluor 647 Mouse Anti-ERK1/2 (Product code 612593, pT202/pY204, 1/10 dilution, BD Biosciences) and Alexa Fluor 488 Mouse anti-Akt (Product code 560404, pS473, 1/10 dilution, BD Biosciences) for 1 h at room temperature in the dark. Cells were then washed 2 times in wash/permeabilization solution and resuspended in flow buffer (HBSS with Ca^2+ and Mg^2+ + 0.1% BSA + 20 mM HEPES pH 7.4). Samples were measured via flow cytometry (CytoFLEX Flow Cytometer) and analyzed in FCS Express software. After gating cells based on the FCS/SSC, MFI of the respective staining was exported for further analysis.

The target in assay [3] is T16, R334X/WT CXCR4 (RX/WT Jurkat cells) (Homo sapiens, UniProt P61073).
T16 construct: cells endogenously expressing WT, R334X/WT or R334X/R334X CXCR4 at similar levels; endogenous in cells; host or cells: Jurkat E6-1 clone B2 (CRISPR-Cas9 edited, made at Applied StemCell)
The description is as above. In kind it is cell-based. The following applies: 10 nM CXCL12 for 5 min. On the procedure:
as §2

For assay [4], the target named is CXCR4 (WT/WT, RX/WT, RX/RX Jurkat cells) (Homo sapiens, UniProt P61073). The assay can be described thus: ERK activation assay (phosphoflow), all Jurkat cell lines tested. In kind it is cell-based. To be noted: 40 nM, 200 nM or 1 µM mavorixafor, 10 nM CXCL12 for 5 min. On the procedure:
as §2

For assay [5], the system named is WT CXCR4 and CXCR4^WHIM variants. The assay can be described thus: ERK activation assay (phosphoflow p-T202/Y204 ERK), K562 cells with stable CXCR4 expression. In kind it is cell-based, human. The following applies: 40 nM, 200 nM or 1 µM mavorixafor, 10 nM CXCL12 for 5 min. On the procedure:
as §2

The test system is the same in assay [6]. The assay can be described thus: AKT activation assay (phosphoflow p-S473 AKT), K562 cells with stable CXCR4 expression. To be noted: 40 nM, 200 nM or 1 µM mavorixafor, 10 nM CXCL12 for 5 min. In kind it is cell-based, human. On the procedure:
as §2

T14 sequence (P61073 whole entry): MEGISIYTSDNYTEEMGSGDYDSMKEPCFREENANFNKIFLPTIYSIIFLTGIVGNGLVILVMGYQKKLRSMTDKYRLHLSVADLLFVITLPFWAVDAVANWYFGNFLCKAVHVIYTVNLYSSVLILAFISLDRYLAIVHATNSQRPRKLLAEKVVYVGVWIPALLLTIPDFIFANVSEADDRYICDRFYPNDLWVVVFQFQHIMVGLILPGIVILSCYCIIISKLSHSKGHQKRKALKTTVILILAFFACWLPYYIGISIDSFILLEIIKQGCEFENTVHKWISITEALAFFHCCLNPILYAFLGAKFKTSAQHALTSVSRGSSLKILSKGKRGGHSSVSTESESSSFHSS
T6 sequence (P61073 with tags, fused parts or gaps, stated change not applied): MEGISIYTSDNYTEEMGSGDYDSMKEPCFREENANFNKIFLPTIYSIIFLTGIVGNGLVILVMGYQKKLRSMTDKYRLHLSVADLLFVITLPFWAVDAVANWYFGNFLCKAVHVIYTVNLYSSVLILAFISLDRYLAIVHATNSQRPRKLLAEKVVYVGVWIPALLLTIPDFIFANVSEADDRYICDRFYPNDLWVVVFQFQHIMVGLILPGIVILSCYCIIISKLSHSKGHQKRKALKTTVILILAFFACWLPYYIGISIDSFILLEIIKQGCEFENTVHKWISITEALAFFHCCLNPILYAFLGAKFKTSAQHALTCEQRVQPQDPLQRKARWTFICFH
T2 sequence (P61073 1-342 limits assumed): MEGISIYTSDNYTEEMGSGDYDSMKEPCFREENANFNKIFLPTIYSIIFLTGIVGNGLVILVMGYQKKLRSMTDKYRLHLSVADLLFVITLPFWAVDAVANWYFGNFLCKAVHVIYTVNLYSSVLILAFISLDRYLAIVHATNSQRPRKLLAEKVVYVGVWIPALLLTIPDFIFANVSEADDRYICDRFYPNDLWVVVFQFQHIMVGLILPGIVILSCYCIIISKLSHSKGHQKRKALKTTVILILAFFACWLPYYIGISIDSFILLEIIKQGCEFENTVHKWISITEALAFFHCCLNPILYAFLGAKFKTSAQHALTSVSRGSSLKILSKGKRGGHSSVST
T11 sequence (P61073 with tags, fused parts or gaps, stated change not applied): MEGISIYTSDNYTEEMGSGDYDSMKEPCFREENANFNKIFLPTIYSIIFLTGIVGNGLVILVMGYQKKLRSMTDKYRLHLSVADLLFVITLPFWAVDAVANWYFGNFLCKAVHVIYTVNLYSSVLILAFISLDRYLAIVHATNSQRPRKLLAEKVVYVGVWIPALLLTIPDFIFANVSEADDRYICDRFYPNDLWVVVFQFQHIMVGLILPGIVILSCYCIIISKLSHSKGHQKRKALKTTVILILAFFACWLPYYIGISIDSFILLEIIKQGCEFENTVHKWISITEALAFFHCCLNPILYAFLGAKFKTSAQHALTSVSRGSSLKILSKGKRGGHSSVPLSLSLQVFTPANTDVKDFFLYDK
T5 sequence (P61073 1-333 limits assumed): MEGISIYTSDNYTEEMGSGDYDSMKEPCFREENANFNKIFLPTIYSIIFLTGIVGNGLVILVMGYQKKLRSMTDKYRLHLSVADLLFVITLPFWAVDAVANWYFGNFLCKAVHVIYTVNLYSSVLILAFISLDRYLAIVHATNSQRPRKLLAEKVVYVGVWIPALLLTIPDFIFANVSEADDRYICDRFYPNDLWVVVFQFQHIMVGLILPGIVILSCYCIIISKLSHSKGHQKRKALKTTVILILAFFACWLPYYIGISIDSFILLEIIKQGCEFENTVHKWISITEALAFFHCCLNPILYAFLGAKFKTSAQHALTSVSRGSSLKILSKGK
CXCR4 (WT/WT, RX/WT, RX/RX Jurkat cells), sequence (P61073 1-333 limits assumed): as above
CXCR4 (WT/WT, RX/WT, RX/RX), sequence (P61073 1-333 limits assumed): as above
T16 sequence (P61073 1-333 limits assumed): as above
T16 sequence (P61073 whole entry): as the sequence (P61073 whole entry) above
T15 sequence (P61073 1-333 limits assumed): as the sequence (P61073 1-333 limits assumed) above
T12 sequence (P61073 with tags, fused parts or gaps, stated change not applied): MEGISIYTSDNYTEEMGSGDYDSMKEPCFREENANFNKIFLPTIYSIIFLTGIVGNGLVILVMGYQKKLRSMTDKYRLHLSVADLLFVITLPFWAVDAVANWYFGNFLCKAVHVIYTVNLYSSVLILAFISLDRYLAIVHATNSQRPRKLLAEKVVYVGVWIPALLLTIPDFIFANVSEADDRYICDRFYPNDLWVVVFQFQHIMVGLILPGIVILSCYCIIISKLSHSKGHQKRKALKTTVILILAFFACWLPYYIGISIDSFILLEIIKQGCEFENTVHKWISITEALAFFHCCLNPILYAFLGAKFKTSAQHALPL
T1 sequence (P61073 whole entry E343K): as the sequence (P61073 whole entry) above, with E343K counted along it
T8 sequence (P61073 1-337 limits assumed): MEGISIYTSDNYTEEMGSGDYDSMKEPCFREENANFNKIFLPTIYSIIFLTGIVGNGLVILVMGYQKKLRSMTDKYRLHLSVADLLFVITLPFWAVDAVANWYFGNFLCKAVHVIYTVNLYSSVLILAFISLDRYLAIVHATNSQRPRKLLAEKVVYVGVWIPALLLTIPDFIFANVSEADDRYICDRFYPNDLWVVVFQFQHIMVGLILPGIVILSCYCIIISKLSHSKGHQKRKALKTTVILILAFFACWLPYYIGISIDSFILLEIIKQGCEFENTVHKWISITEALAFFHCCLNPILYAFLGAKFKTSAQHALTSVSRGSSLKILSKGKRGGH
T13 sequence (P61073 with tags, fused parts or gaps, stated change not applied): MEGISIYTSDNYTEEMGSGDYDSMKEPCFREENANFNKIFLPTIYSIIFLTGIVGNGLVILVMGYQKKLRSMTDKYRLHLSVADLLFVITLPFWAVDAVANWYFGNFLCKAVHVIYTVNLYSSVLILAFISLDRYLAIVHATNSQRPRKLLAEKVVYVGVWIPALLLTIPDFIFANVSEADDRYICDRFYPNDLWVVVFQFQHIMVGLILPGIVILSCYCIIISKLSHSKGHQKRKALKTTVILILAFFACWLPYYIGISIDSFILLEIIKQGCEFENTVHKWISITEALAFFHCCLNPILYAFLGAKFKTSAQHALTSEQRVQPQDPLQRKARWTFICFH
T3 sequence (P61073 1-335 limits assumed): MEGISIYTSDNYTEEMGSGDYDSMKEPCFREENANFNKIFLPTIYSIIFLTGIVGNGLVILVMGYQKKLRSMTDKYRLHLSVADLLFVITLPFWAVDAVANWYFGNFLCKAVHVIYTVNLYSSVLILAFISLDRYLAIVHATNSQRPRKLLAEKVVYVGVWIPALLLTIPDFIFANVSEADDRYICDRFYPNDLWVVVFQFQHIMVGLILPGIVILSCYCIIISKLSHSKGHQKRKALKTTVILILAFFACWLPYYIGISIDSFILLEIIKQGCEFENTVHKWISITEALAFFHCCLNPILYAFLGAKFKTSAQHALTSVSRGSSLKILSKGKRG
T7 sequence (P61073 with tags, fused parts or gaps, stated change not applied): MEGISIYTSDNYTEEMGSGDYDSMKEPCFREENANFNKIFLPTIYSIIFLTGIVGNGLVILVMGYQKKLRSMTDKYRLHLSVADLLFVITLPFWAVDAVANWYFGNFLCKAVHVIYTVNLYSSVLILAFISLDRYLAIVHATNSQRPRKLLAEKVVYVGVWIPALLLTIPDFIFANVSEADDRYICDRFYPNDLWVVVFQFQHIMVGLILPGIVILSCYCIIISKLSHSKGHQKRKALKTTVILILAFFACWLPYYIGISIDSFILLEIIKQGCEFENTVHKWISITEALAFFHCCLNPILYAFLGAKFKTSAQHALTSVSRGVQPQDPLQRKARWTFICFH
T10 sequence (P61073 with tags, fused parts or gaps, stated change not applied): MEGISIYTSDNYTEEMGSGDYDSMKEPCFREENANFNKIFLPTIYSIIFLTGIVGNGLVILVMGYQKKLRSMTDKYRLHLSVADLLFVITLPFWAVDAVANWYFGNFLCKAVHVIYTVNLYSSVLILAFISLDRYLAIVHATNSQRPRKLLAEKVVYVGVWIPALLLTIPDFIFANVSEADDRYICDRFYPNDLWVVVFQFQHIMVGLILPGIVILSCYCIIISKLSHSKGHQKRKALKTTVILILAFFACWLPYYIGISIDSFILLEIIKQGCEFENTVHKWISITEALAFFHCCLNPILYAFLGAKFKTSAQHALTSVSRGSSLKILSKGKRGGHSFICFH
T9 sequence (P61073 with tags, fused parts or gaps, stated change not applied): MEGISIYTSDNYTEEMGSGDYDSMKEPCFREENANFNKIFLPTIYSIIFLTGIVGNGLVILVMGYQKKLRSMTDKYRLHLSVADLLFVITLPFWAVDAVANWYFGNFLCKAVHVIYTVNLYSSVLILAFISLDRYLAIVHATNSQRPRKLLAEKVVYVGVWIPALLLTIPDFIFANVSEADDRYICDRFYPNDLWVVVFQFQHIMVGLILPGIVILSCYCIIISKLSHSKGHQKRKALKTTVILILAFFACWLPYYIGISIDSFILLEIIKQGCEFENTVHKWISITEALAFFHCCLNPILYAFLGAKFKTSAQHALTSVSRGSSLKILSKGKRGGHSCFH
T4 sequence (P61073 with tags, fused parts or gaps, stated change not applied): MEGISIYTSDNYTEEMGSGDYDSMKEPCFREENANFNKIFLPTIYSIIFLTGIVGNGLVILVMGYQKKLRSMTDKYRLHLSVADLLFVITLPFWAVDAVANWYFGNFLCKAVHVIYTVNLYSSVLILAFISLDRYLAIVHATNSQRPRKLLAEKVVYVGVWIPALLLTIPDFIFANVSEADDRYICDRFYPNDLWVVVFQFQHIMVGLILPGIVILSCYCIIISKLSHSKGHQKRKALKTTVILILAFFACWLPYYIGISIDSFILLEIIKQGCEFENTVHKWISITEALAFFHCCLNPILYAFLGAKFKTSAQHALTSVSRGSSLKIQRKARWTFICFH

Turning to `NCCCCN(Cc1nc2ccccc2[nH]1)[C@H]1CCCc2cccnc21` [mavorixafor], the Emax turned out to be 66% at CXCR4 E343K; 90% at CXCR4 E343X; 82% at CXCR4 G336X; 51% on CXCR4 L329Q fs*13; 72% at CXCR4 R334X; 76% on CXCR4 S319C fs*24. Moreover, the Emax is 58% at CXCR4 S324V fs*20; 89% at CXCR4 S338X; 77% at CXCR4 S339C fs*4; 59% on CXCR4 S339F fs*6; 57% at CXCR4 S341P fs*25; 88% on CXCR4 T318P fs*3. In addition, the Emax on CXCR4 V320E fs*23 was 65%; at WT CXCR4 it was 84%; on all CXCR4^WHIM variants it was 51 to 90%. For the same compound, the “Efficacy of inhibition of CXCL12 binding to CXCR4” value in [1] was 100%. Further, the results for the “Concentration that normalized the hyperactive ERK signaling” value in assay [2] and in assay [3] were 200 nM and 40 nM, respectively. Further, in assay [4], the “Effect on CXCL12-stimulated ERK activation” value is listed as “inhibited”. Moreover, in assay [5], the “Effect on CXCL12-dependent ERK activation” value was “inhibited”. Moreover, the “Effect on CXCL12-dependent AKT activation” value in [6] was “inhibited”.
